Test [1] has as its system CLP model of sepsis in mice. The test is described as follows: CLP study, survival of mice treated with chito-oligomers. The test is classed as in vivo. The following applies: for survival over 7 days: intervention at 6 hours post-surgery, about 250 μg single IP dose with antibiotics, FIG. 5A; for protection over 'Antibiotic-alone' group: intervention at 6 hours, 7 days. As to the method:
The CLP study with 7-9 week old C57BL/6 or BALB/c males was conducted, at animal house facility at TheraIndx Lifesciences Pvt. Ltd. (Bangalore, India) and Institute of Life Sciences (Bhubaneswar, India) respectively, in accordance with ethical practices laid down in the CPCSEA guidelines for animal care and use (CPCSEA, 2003). The Institutional Animals Ethics Committee (IAEC) of the test facility approved the studies. The CLP was performed as described before (Rittirsch et al., 2009; Toscano et al., 2011). […] About 500 μl saline was administered subcutaneously immediately after surgery. Tramadol (about 20 mg/kg) was injected subcutaneously for post-operative analgesia. […] A separate group of C57BL/6 mice received single IP dose of about 250 μg of 6-mer, 7-mer or 8-mer at either 6 hour or 24 hour post CLP. All groups except the CLP alone (control) received a single dose of standard antibiotics (amoxicillin and clavulanate) 6 hour post CLP. Control group was injected with saline solution. Total of 92 C57BL/6 and 18 BALB/c mice were used in the study.
Experimental data were analyzed using GraphPad Prism 8 (GraphPad Software, Inc.). Kruskal-Wallis test and one way ANOVA test was used for analysis of cytokines and reporter assay values. Log-rank (Mantel-Cox) test was utilized for survival analysis. P-values, P<0.05 were considered statistically significant and are denoted by […] if calculated P-values were lower than P=0.05.

The subject of the next test is CLP mice. The test is described as follows: Plasma cytokine levels in CLP mice (Bio-Plex multiplex assay). The test is classed as in vivo. The following applies: for plasma IL-6 levels: 6 hours post intervention, versus untreated, FIG. 5C; for levels of IL-1b over time / levels of MCP-1 over time / levels of TNF-α over time: individual CLP mice, 6 hours versus 48 hours post treatment. As to the method:
The CLP study with 7-9 week old C57BL/6 or BALB/c males was conducted, at animal house facility at TheraIndx Lifesciences Pvt. Ltd. (Bangalore, India) and Institute of Life Sciences (Bhubaneswar, India) respectively, in accordance with ethical practices laid down in the CPCSEA guidelines for animal care and use (CPCSEA, 2003). The Institutional Animals Ethics Committee (IAEC) of the test facility approved the studies. The CLP was performed as described before (Rittirsch et al., 2009; Toscano et al., 2011). Sham control mice had undergone surgery with ceacal manipulations without ligation and puncture. About 500 μl saline was administered subcutaneously immediately after surgery. Tramadol (about 20 mg/kg) was injected subcutaneously for post-operative analgesia. BALB/c mice were injected with single IP close of about 500 μg GA132 (GA is the internal code which has been used by the inventors of the present invention) while C57BL/6 mice received single IP dose of about 300 μg or about 700 μg GA132 6 hours post CLP. A separate group of C57BL/6 mice received single IP dose of about 250 μg of 6-mer, 7-mer or 8-mer at either 6 hour or 24 hour post CLP. All groups except the CLP alone (control) received a single dose of standard antibiotics (amoxicillin and clavulanate) 6 hour post CLP. Control group was injected with saline solution. Total of 92 C57BL/6 and 18 BALB/c mice were used in the study.
The Mutiplex immunoassay for Human and Mouse IL-1b, IL-6, IL-10, TNF-α and MCP-1 were purchased from Bio-Rad. For human cytokines, 1×10^6 PBMCs were seeded in 24 well plate a day before and treated with 100 ng/ml LPS or 50 μg/ml GA132 for 24 hours. The culture supernatant from three independent biological replicates was collected and used for the assay without dilution. For mice cytokines, the plasma samples from mice were collected 6 or 48 hours post treatment and diluted in PBS (Phosphate Buffered Saline) in 1:2 before assay. The assay was performed as per manufacturers' method and the beads were read and analyzed in Bio-Plex® MAGRIX™ Multiplex Reader (Bio-Rad) (https://www.bio-rad.com/webroot/web/pdg/lsr/literature/10014905.pdf).

Another test addresses TLR2 (Homo sapiens, UniProt O60603). The test is described as follows: HEK-Blue TLR2 reporter assay (NF-kb and AP-1 driven SEAP). In kind it is cell-based. The arrangement: host or cells: HEK293 (HEK-Blue TLR2 reporter cells). Conditions: HEK-Blue TLR2 reporter cells, 50 μg/ml. The text has this: P1 fraction tested on reporter cell lines where TLR2, TLR4 or TLR3 is expressed in HEK293 cells and activation of the receptors is observed by NP-kB and AP-1 promoter driven SEAP enzyme secretion.
HEK-Blue TLR2, HEK-Blue TLR3 and HEK-Blue TLR4 reporter cells expressing SEAP (secreted embryonic alkaline phosphatase) enzyme under NF-kb and AP-1 promoter (Cat. no.# hkb-htlr2, hkb-htlr3 and hkb-htlr4) were purchased from InvivoGen (USA). Human Peripheral blood mononuclear cells (PBMCs) (Cat. no.# CL003-25) were purchased from Himedia laboratories (India). HEK based cells and PBMCs were cultured DMEM and RPMI media, respectively. The cells were maintained at 37° C. incubator with 5% CO2. The culture media was supplemented with 10% Fetal Calf Serum (Gibco) along with standard antibiotics. HEK-Blue selection antibiotics (InvivoGen, Cat. no.# hb-sel, ant-zn and ant-bl) were added as per manufacturers' instructions.
2×10^4 HEK-Blue reporter cells were seeded, in each well of a 96 well plate, in HEK-Blue detection media (InvivoGen, Cat. no.# hb-det3) along with the 50 μg/ml of the chito-oligomers. […] The treated cells were incubated at about 37° C. for about 16 hours and absorbance (O.D.) was measured at 620 nm in either TECAN Infinite® 200 PRO or Thermo Scientific Varioskan LUX multimode reader.

The mark [2] stands for this setting: C57BL/6 CLP mice, single dose at 24 hours post-surgery.
Where [3] appears, read: CLP mice, 48 hours, versus untreated group, FIG. 5D.

Sequence of TLR2 (O60603 21-784): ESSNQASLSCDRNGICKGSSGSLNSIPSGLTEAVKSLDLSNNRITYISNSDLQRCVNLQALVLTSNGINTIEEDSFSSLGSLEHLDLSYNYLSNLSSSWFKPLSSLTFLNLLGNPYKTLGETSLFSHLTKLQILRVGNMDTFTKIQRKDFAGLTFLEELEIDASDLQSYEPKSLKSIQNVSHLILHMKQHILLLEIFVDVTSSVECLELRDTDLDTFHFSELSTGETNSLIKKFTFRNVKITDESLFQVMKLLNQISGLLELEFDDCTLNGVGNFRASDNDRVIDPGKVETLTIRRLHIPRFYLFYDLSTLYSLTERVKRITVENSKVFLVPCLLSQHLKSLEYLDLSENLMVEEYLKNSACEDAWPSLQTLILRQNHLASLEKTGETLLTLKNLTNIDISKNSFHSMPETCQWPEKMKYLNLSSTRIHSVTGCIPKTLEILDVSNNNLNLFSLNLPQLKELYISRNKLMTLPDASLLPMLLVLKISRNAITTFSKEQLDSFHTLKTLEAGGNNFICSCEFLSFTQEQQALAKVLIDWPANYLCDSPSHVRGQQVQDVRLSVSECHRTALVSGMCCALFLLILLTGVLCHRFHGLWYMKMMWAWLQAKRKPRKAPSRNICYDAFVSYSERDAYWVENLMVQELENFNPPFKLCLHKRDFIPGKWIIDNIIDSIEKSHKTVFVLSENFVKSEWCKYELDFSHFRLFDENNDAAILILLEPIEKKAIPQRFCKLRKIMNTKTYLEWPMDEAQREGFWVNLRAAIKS

As to `CC(=O)N[C@H]1[C@H](O[C@H]2[C@H](O)[C@@H](NC(C)=O)[C@H](O[C@H]3[C@H](O)[C@@H](NC(C)=O)[C@H](O[C@H]4[C@H](O)[C@@H](NC(C)=O)C(O)O[C@@H]4CO)O[C@@H]3CO)O[C@@H]2CO)O[C@H](CO)[C@@H](O[C@@H]2O[C@H](CO)[C@@H](O[C@@H]3O[C@H](CO)[C@@H](O[C@@H]4O[C@H](CO)[C@@H](O[C@@H]5O[C@H](CO)[C@@H](O)[C@H](O)[C@H]5NC(C)=O)[C@H](O)[C@H]4NC(C)=O)[C@H](O)[C@H]3NC(C)=O)[C@H](O)[C@H]2NC(C)=O)[C@@H]1O` (some centres unmarked) [8-mer, Octa-N-acetyl Chitooctaose], in test [1] (C57BL/6 CLP mice), the “survival over 7 days” value is listed as 40% and the “protection over 'Antibiotic-alone' group” value is “no additional protection”. Moreover, in test [1] (setting [2]), the “survival compared to 'Antibiotic alone' group” value is “no change”. The “plasma IL-6 levels” value with CLP mice (CLP mice) is recorded as “reduced in 8-mer treated mice when compare to untreated mice but the difference was not found to be significant”. In the test with CLP mice, the “levels of IL-1b over time” value was “increase”, the “levels of MCP-1 over time” value is given as “increase” and the “levels of TNF-α over time” value is reported as “increase”.
Take `CC(=O)N[C@H]1[C@H](O[C@H]2[C@H](O)[C@@H](NC(C)=O)[C@H](O[C@H]3[C@H](O)[C@@H](NC(C)=O)C(O)O[C@@H]3CO)O[C@@H]2CO)O[C@H](CO)[C@@H](O[C@@H]2O[C@H](CO)[C@@H](O[C@@H]3O[C@H](CO)[C@@H](O[C@@H]4O[C@H](CO)[C@@H](O)[C@H](O)[C@H]4NC(C)=O)[C@H](O)[C@H]3NC(C)=O)[C@H](O)[C@H]2NC(C)=O)[C@@H]1O` (some centres unmarked) [6-mer, Hexa-N-acetyl Chitohexaose]: the “protection over 'Antibiotic-alone' group” value in test [1] (C57BL/6 CLP mice) is recorded as “no additional protection”. Besides, in test [1] (setting [2]), the “survival compared to 'Antibiotic alone' group” value is given as “no change”. Besides, in the test on CLP mice (CLP mice), the “plasma IL-6 levels” value is “significant decrease”. For the same compound, in the test with CLP mice, the “levels of IL-1b over time” value is reported as “no effect”, the “levels of MCP-1 over time” value is “no effect” and the “levels of TNF-α over time” value is “no effect”.
`CC(=O)N[C@H]1[C@H](O[C@H]2[C@H](O)[C@@H](NC(C)=O)[C@H](O[C@H]3[C@H](O)[C@@H](NC(C)=O)[C@H](O[C@H]4[C@H](O)[C@@H](NC(C)=O)C(O)O[C@@H]4CO)O[C@@H]3CO)O[C@@H]2CO)O[C@H](CO)[C@@H](O[C@@H]2O[C@H](CO)[C@@H](O[C@@H]3O[C@H](CO)[C@@H](O[C@@H]4O[C@H](CO)[C@@H](O)[C@H](O)[C@H]4NC(C)=O)[C@H](O)[C@H]3NC(C)=O)[C@H](O)[C@H]2NC(C)=O)[C@@H]1O` (some centres unmarked) [7-mer, Hepta-N-acetyl Chitoheptaose]: in test [1] (C57BL/6 CLP mice), the “survival over 7 days” value was “around 90%”. Further, in test [1] (C57BL/6 CLP mice, single dose at 24 hours post-surgery, FIG. 5B), the “survival up to 7 days” value stood at 80%. In test [1] (single dose of 200-250 μg 6 hours and 24 hours post-CLP, till day 7, FIG. 4), the mortality result is on record as “significant mortality reduction”. Besides, the “plasma IL-6 levels” value in the test on CLP mice (CLP mice) is reported as “significant decrease”. Moreover, in the test with CLP mice (setting [3]), the “plasma IL-1b” value is given as “significant reduction”, the “plasma IL-10” value is listed as “significant reduction”, the “plasma MCP-1” value is reported as “significant reduction” and the “plasma TNF-α” value is “significant reduction”. In the test on CLP mice, the “levels of IL-1b over time” value is reported as “significant reduction”, the “levels of MCP-1 over time” value is recorded as “significant reduction” and the “levels of TNF-α over time” value is “significant reduction”. For the same compound, the “activity in TLR2 reporter cells compared between oligomers” value at TLR2 is given as “significantly higher than 8-mer”.
Turning to “amoxicillin and clavulanate [Antibiotic—alone, reference compound]”, the “survival over 7 days” value in test [1] (C57BL/6 CLP mice) is 60%.
